Test: Inhibition of rat intestinal alpha-glucosidase using para-nitrophenyl-alpha-D-glucopyranoside as substrate incubated for 5 min prior to substrate addition measured after 5 min by spectrophotometric analysis

Which IC50 does the source give for O=C(/C=C/c1ccccc1)c1cc2ccoc2cc1O here?
The IC50 was 14.5 µM.

For O=C(/C=C/c1ccc(O)c(O)c1)c1ccc2occc2c1O, which IC50 is on record?
Its IC50 is 15.2 µM.

With O=C(/C=C/c1ccc(O)c(O)c1)c1cc2ccoc2cc1O as the compound, how does the IC50 read?
The IC50 was 18.9 µM.

For COc1cc(OC)c(OC)cc1/C=C/C(=O)c1cc2ccoc2cc1O, which IC50 is on record?
The IC50 was 13.4 µM.

With COc1ccc(/C=C/C(=O)c2cc3ccoc3cc2O)cc1OC as the compound, how does the IC50 read?
The IC50 was 10.8 µM.

Which IC50 does the source give for COc1ccc(/C=C/C(=O)c2ccc3occc3c2O)c(OC)c1OC here?
The IC50 was 17.3 µM.

For COc1ccc(/C=C/C(=O)c2ccc3occc3c2O)cc1OC, which IC50 is on record?
The IC50 was 5 µM.

For COc1ccc(/C=C/C(=O)c2ccc3occc3c2O)cc1, which IC50 is on record?
Its IC50 is 9.2 µM.

With O=C(/C=C/c1ccc(O)cc1)c1ccc2occc2c1O as the compound, how does the IC50 read?
The IC50 was 10.9 µM.
